Data as given in US9814796B2, “Methods for sterilization and/or disinfection” (P[…] OF NEVADA, LLC, priority 2015, dated 2017).

System: Bacillus atrophaeus ATCC 9372 spores
Assay: Spore inactivation by 3.25 wt. % performic acid at various times and temperatures
Type: cell-based
Conditions: for Colony Forming Units (CFU) / Log Reduction: 3.25 wt. % performic acid
Description: An aqueous solution containing x weight percent of performic acid may be prepared by (1) diluting a commercially available aqueous solution of hydrogen peroxide (e.g., a 30 weight percent aqueous solution or a 50 weight percent aqueous solution) down to a concentration of 2x; (2) diluting a commercially available aqueous solution of formic acid (e.g., a 95 weight percent aqueous solution) down to a concentration of 2x; and (3) combining the diluted solution of hydrogen peroxide and the diluted solution of formic acid in a 1:1 volume, thereby providing performic acid in a concentration of x.
The procedure for performing spore inactivation tests in solution is as follows: Bacillus atrophaeus ATCC 9372 spores in saline were equilibrated in a water bath at the preselected test temperature, as was a formic acid/hydrogen peroxide mixture. At an initial time (T0), a volume of the formic acid/peroxide mixture was added to the spore preparation, such that the pre-chosen test concentration of the sterilization agent was achieved. At preselected times after the addition of the sterilization agent to the spore preparation, aliquots of the spore-treated mixture were transferred into a solution containing an excess of catalase (MP Biomedical) in order to quench the peroxide reaction. This solution was then serially ten-fold diluted and spread-plated onto tryptic soy agar plates that were subsequently incubated at 35° C. for 48 hours and enumerated.
An aqueous solution containing 3.25 wt. % of performic acid was prepared by (1) diluting a 50 wt. % aqueous solution of hydrogen peroxide down to a concentration of 6.5 wt. %; (2) diluting a 95 wt. % aqueous solution of formic acid down to a concentration of 6.5 wt. %; and (3) combining the 6.5 wt. % solution of hydrogen peroxide and the 6.5 wt. % solution of formic acid in a 1:1 volume.

## performic acid
10° C., 5 seconds
  Colony Forming Units (CFU): 0 CFU
  Log Reduction: >7.8
10° C., 10 seconds
  Colony Forming Units (CFU): 0 CFU
  Log Reduction: >7.8
10° C., 15 seconds
  Colony Forming Units (CFU): 0 CFU
  Log Reduction: >7.8
20° C., 5 seconds
  Colony Forming Units (CFU): 0 CFU
  Log Reduction: >8
20° C., 10 seconds
  Colony Forming Units (CFU): 0 CFU
  Log Reduction: >8
20° C., 15 seconds
  Colony Forming Units (CFU): 0 CFU
  Log Reduction: >8
Room temperature and below (e.g., 5° C. or 10° C.), exposure times as little as 5 seconds
  effectiveness in killing spores (in words): surprisingly and unexpectedly effective
